Assays:
HL60 cells = assay: Time-of-flight (TOF) optophoretic testing of HL60 cells treated with DMSO; assay type: cell-based; details: 1% DMSO, after 40 hours of treatment, compared to non-treated HL60 cells (FIGS. 44 and 45)
Excerpt: The system includes multiple, preferably three, detecting positions, 31, 32 and 33. The detecting positions 31, 32, 33, may be associated with detection of times, e.g., t1, t2, t3. The times may be absolute, relative or elapsed. The two outermost detecting positions, i.e., 31 and 33 in this example, are separated by a distance L. A representative length L when detecting biological particles would be substantially 200 microns or less. The difference between the first two detecting positions t1, t2, define a time interval T1. T1 may also be associated with a first detection zone corresponding to the motion of the particle 36 through the zone T1. The second and third detecting positions t2, t3, define a second detection zone T2. The second detection zone also corresponds to the time difference between t2, t3. In one preferred embodiment, the distance between t2 t3 is equal to the distance between t1 t2. In operation, the cell or particle 36 flows from the inlet 22 through the channel 20 through the outlet 24. For biological detection purposes, representative particle speeds are from substantially 50 to substantially 200 microns per second. As the cell or particle 36 flows through the first detection zone T1, the time-of-flight through that zone is measured, that is the time it takes for the cell or particle 36 to move from position t1 to t2. An optical gradient 38 is disposed within zone T2. […]

T cells = assay: Time-of-flight (TOF) optophoretic testing of activated and unactivated T cells; assay type: cell-based; details: T cells activated with 0.5 μml PMA and 50 ng/ml ionomycin together, overnight, compared to unstimulated T cells (FIG. 46)
Excerpt: The system includes multiple, preferably three, detecting positions, 31, 32 and 33. The detecting positions 31, 32, 33, may be associated with detection of times, e.g., t1, t2, t3. The times may be absolute, relative or elapsed. The two outermost detecting positions, i.e., 31 and 33 in this example, are separated by a distance L. A representative length L when detecting biological particles would be substantially 200 microns or less. The difference between the first two detecting positions t1, t2, define a time interval T1. T1 may also be associated with a first detection zone corresponding to the motion of the particle 36 through the zone T1. The second and third detecting positions t2, t3, define a second detection zone T2. The second detection zone also corresponds to the time difference between t2, t3. In one preferred embodiment, the distance between t2 t3 is equal to the distance between t1 t2.
In operation, the cell or particle 36 flows from the inlet 22 through the channel 20 through the outlet 24. For biological detection purposes, representative particle speeds are from substantially 50 to substantially 200 microns per second. As the cell or particle 36 flows through the first detection zone T1, the time-of-flight through that zone is measured, that is the time it takes for the cell or particle 36 to move from position t1 to t2. An optical gradient 38 is disposed within zone T2. […]

In the case of `C[S+](C)[O-]` [DMSO, dimethyl sulfoxide], the “TOF ratio t2/t1” value (HL60 cells) is reported as “lower TOF ratio”.

In the case of `C[C@H](CCC(=O)O)C[C@H](C)C[C@H](C)C(=O)/C=C(\O)[C@H](C)C[C@H](C)C/C=C/[C@@H](C)[C@@H](O)[C@@H](C)[C@@H](O)C[C@@H]1CC[C@@](C)([C@H]2CC[C@@](C)([C@@H](C)O)O2)O1` [ionomycin], the “TOF ratio t2/t1” value (T cells) is reported as “lower TOF ratio”.

For `CCCCCCCCCCCCCC(=O)O[C@@H]1[C@@H](C)[C@@]2(O)[C@@H](C=C(CO)C[C@]3(O)C(=O)C(C)=C[C@@H]23)[C@@H]2C(C)(C)[C@]12OC(C)=O` [PMA, Phorbol mystirate acetate], the “TOF ratio t2/t1” value (T cells) was “lower TOF ratio”.

Source: US20040067167A1, “Methods and apparatus for optophoretic diagnosis of cells and particles” (Genoptix, Inc., priority 2002, published 2004)
